Measured values: patent US20210292807A1, “METHOD FOR TESTING ANTIMICROBIAL SUSCEPTIBILITY” (priority 2017, published 2021)

Test system: Klebsiella isolates
Assay: Acoustic flow cytometry-assisted susceptibility test (FAST), MICFAST and S/NS, Klebsiella isolates
Assay type: cell-based, Klebsiella pneumoniae, Klebsiella oxytoca
Description: A 1 mL aliquot of bacterial suspension was centrifuged, washed and resuspended in 1 mL filtered Hank's Buffered Salt Solution (HBSS; comprising about 0.137 M NaCl, about 5.4 mM KCl, about 0.25 mM Na2HPO4, about 0.1 g Glucose, about 0.44 mM KH2PO4, 1.3 mM CaCl2), 1.0 mM MgSO4, about 1.3 mM CaCl2), 1.0 mM MgSO4, and about 4.2 mM NaHCO3) and diluted in series (e.g., in a 1:10 serial dilution) to a final 1:1000 dilution.
One μL (microliter) of SYTO 9 stain (e.g., ThermoFisher Scientific) working stock solution was added to the final dilution at a final concentration of 5 μM and incubated for 5 minutes before counting bacterial events by acoustic flow cytometer (AFC) (Attune, ThermoFisher, Eugene, Oreg., USA), which was used to prepare a standardised inoculum density for susceptibility testing.
An aliquot of bacterial suspension was added to 50 mL centrifuge tubes (Corning, N.Y.) containing 9 mL of pre-warmed (37° C.) filtered MHB to produce a final density of 5×10^5-1×10^6 bacteria per mL. This suspension was incubated at 37° C. with shaking at 100 RPM for 30 minutes to obtain an actively dividing culture. An aliquot of antibiotic working solution from the previously described dilution series (appropriate to the concentration tested) was then added to each tube before a further 30-minute incubation with shaking, during which time a microbroth dilution (MBD) plate was prepared for overnight incubation at 37° C. as previously described in Clinical and Laboratory Standards Institute (2015) Performance Standards for Antimicrobial Susceptibility Testing: Informational Supplement. CLSI document M100-S25. Clinical and Laboratory Standards Institute, 950, West Valley Road, Suite 2500, Wayne, Pa., 19087, USA.
One millilitre of bacterial suspension from each antibiotic concentration was harvested by centrifugation at 7800×g for 5 minutes, washed and diluted 1:10 in filtered HBSS in a light-impermeable microcentrifuge tube, then stained with SYTO 9 stain at a final concentration of 5 μM, and incubated for 5 min before AFC sampling. Hoechst 33342 dye (NucBlue, Thermo Fisher Scientific, Eugene, Oreg., USA) and a SYTO 9/propidium iodide (PI) combination (Thermo Fisher Scientific) were used in a series of replicate experiments.
The acoustic flow cytometer employed was Attune acoustic flow cytometer (Thermo Fisher Scientific), having installed therein a 488 nm blue laser with a 530/30 nm filter on the photomultiplier tube for measuring fluorescence of cells assayed. Alternatively, the Attune NxT acoustic flow cytometer (Thermo Fisher Scientific) can be employed. AFC was calibrated at the beginning of each acquisition session using fluorescently labelled size calibration beads, in accordance with the manufacturer's instructions (ThermoFisher Scientific). The AFC settings were as follows: Forward Scatter (FSC) voltage 3100, FSC threshold 4×1000 AND, blue laser 1 (BL1—530/30 nm) voltage 1900, BL1 threshold 1×1000 AND, high sensitivity, flow rate 25 μL/minute, and an acquisition volume of 125 μL. Acquisition was halted after either collection of 20,000 events across all gates, or after 3 minutes, with each sample acquired in technical triplicate.
Collected data was exported in the FCS 3.0 file format and analysed in Flow v10.0 (FlowJo LLC, Ashland, Oreg., USA) by a single user, blinded to the MIC results by BMD (MICBMD).
Subsequent to quantitative MICFAST determination, the acoustic flow cytometer data were re-analysed in silico to produce a limited sub-set for qualitative susceptibility determination. The six antibiotic dilutions (0 mg/L, 0.25 mg/L, 1 mg/L, 2 mg/L, 4 mg/L and 16 mg/L) most relevant to qualitative susceptibility assessment were used. In silico analysis was restricted to the first technical triplicate of each recorded sample. Gating strategies remained consistent, with the addition of a gate restricting analysis to only those events recorded in the first 60 seconds of acquisition.

[1] = isolate 3000770, England, NDM-1
[2] = isolate 3040820, England, pAmpC
[3] = isolate ATCC BAA 1705, USA, KPC
[4] = isolate K16, Australia, IMP - 4
[5] = isolate K23, Australia, IMP - 4
[6] = isolate KS1, Sri Lanka, OXA-181
[7] = isolate KS2, Sri Lanka, OXA-181
[8] = isolate KS17, Sri Lanka, OXA-181
[9] = isolate KS23, Sri Lanka, OXA-181

Structure (SMILES): C[C@@H](O)[C@H]1C(=O)N2C(C(=O)O)=C(S[C@@H]3CN[C@H](C(=O)N(C)C)C3)[C@H](C)[C@H]12 [meropenem]
- FAST S/NS (isolate 2440606, England): S (S = MIC ≤2 mg/L)
- MICFAST (isolate 2440606, England): ≤0.25 mg/L
- FAST S/NS (isolate 2880622, England): S (S = MIC ≤2 mg/L)
- MICFAST (isolate 2880622, England): ≤0.25 mg/L
- FAST S/NS (isolate 2880654, England, KPC): NS (NS = MIC >2 mg/L)
- MICFAST (isolate 2880654, England, KPC): 32 mg/L
- FAST S/NS (isolate 2890369, England): S (S = MIC ≤2 mg/L)
- MICFAST (isolate 2890369, England): 0.5 mg/L
- FAST S/NS (isolate 2980639, England): S (S = MIC ≤2 mg/L)
- MICFAST (isolate 2980639, England): 0.5 mg/L
- FAST S/NS [1]: NS (NS = MIC >2 mg/L)
- MICFAST [1]: 8 mg/L
- FAST S/NS [2]: S (S = MIC ≤2 mg/L)
- MICFAST [2]: ≤0.25 mg/L
- FAST S/NS (isolate 3080800, England, KPC): NS (NS = MIC >2 mg/L)
- MICFAST (isolate 3080800, England, KPC): 32 mg/L
- FAST S/NS (isolate A1, Norway): S (S = MIC ≤2 mg/L)
- MICFAST (isolate A1, Norway): ≤0.25 mg/L
- FAST S/NS (isolate A2, Norway): S (S = MIC ≤2 mg/L)
- MICFAST (isolate A2, Norway): ≤0.25 mg/L
- FAST S/NS (isolate A3, Norway): S (S = MIC ≤2 mg/L)
- MICFAST (isolate A3, Norway): ≤0.25 mg/L
- FAST S/NS (isolate A4, Norway): S (S = MIC ≤2 mg/L)
- MICFAST (isolate A4, Norway): ≤0.25 mg/L
- FAST S/NS (isolate A7, Norway): S (S = MIC ≤2 mg/L)
- MICFAST (isolate A7, Norway): ≤0.25 mg/L
- FAST S/NS (isolate A13, Norway): S (S = MIC ≤2 mg/L)
- MICFAST (isolate A13, Norway): ≤0.25 mg/L
- FAST S/NS (isolate A15, Norway): S (S = MIC ≤2 mg/L)
- MICFAST (isolate A15, Norway): ≤0.25 mg/L
- FAST S/NS (isolate A16, Norway): S (S = MIC ≤2 mg/L)
- MICFAST (isolate A16, Norway): ≤0.25 mg/L
- FAST S/NS (isolate A20, Norway, NDM-1): NS (NS = MIC >2 mg/L)
- MICFAST (isolate A20, Norway, NDM-1): 16 mg/L
- FAST S/NS (isolate ATCC 700603, USA): S (S = MIC ≤2 mg/L)
- MICFAST (isolate ATCC 700603, USA): ≤0.25 mg/L
- FAST S/NS [3]: NS (NS = MIC >2 mg/L)
- MICFAST [3]: 8 mg/L
- FAST S/NS (isolate ATCC BAA 1706, USA): S (S = MIC ≤2 mg/L)
- MICFAST (isolate ATCC BAA 1706, USA): ≤0.25 mg/L
- FAST S/NS (isolate K1, Australia, OXA-181): NS (NS = MIC >2 mg/L)
- MICFAST (isolate K1, Australia, OXA-181): 32 mg/L
- FAST S/NS (isolate K2, Australia, OXA-181): NS (NS = MIC >2 mg/L)
- MICFAST (isolate K2, Australia, OXA-181): 32 mg/L
- FAST S/NS (isolate K8, Australia, NDM-1): NS (NS = MIC >2 mg/L)
- MICFAST (isolate K8, Australia, NDM-1): >256 mg/L
- FAST S/NS (isolate K14, Australia, KPC): NS (NS = MIC >2 mg/L)
- FAST S/NS [4]: S (S = MIC ≤2 mg/L)
- MICFAST [4]: 2 mg/L
- FAST S/NS [5]: S (S = MIC ≤2 mg/L)
- MICFAST [5]: 0.5 mg/L
- FAST S/NS [6]: S (S = MIC ≤2 mg/L)
- MICFAST [6]: 2 mg/L
- FAST S/NS [7]: NS (NS = MIC >2 mg/L)
- MICFAST [7]: 16 mg/L
- FAST S/NS [8]: NS (NS = MIC >2 mg/L)
- MICFAST [8]: 64 mg/L
- FAST S/NS [9]: NS (NS = MIC >2 mg/L)
- MICFAST [9]: 64 mg/L
- FAST S/NS (isolate N17, Sweden, NDM-1): NS (NS = MIC >2 mg/L)
- MICFAST (isolate N17, Sweden, NDM-1): 32 mg/L
